Article PMC7579906, “Discovery of a dual inhibitor of NQO1 and GSTP1 for treating glioblastoma” (Journal of Hematology & Oncology, 2020)

Experiments:
[1] = tested on: U87MG/EGFRvIII cells; experiment: ROS measurement (DCFH-DA); type: cell-based, human; conditions: dose-dependent, 0-5 μM
Procedure: The DCFH-DA method was employed to detect the levels of intracellular reactive oxygen species (ROS). After various treatments, the cells were collected and then incubated with 5 μM DCFH-DA (ROS dye, #C6827, Invitrogen, USA) for 1 h at 37 °C. The fluorescence intensity was measured by the microplate reader (BioTek Instruments Inc., USA) with settings at excitation and emission equal to 485/535 nm.

[2] = biological target: T1, GSTP1 R100A (Homo sapiens, UniProt P09211, I105V/R101A); experiment: Microscale thermophoresis (MST), R100A; conditions: n.b. = no clear binding detected
T1 construct: hexahistidine tag followed by a thrombin site (N); made in house; host or cells: Escherichia coli BL21 (DE3)
Procedure: (§1) Since Tris buffer is incompatible with MST labeling, GSTP1 and its mutants were performed an initial buffer exchange to 20 mM HEPES pH 7.6, 200 mM NaCl before labeling. Then, the proteins were fluorescently labeled using Monolith Protein Labeling Kit RED-NHS 2nd generation dye (NanoTemper Technology, Munich, Germany) according to the protocol. MNPC was prepared with a series of concentrations (varying from 2 mM to 11 nM) at a dilution ratio of 1: 2. Six microliters of the fluorescence-labeled GSTP1 or mutations was mixed with 6 μl of variable concentration of MNPC and incubated for 10 min at room temperature. The mixtures were loaded into standard glass capillaries and analyzed on Monolith NT.115 at 25 °C, with 40% LED power and 100% Laser power in triplicate. Data were analyzed by NTAnalysis software to calculate the Kd values.

[3] = biological target: T2, GSTP1 V104A (Homo sapiens, UniProt P09211, I105A); experiment: Microscale thermophoresis (MST), V104A; type: binding; conditions: mean ± SEM, three experiments
T2 construct: hexahistidine tag followed by a thrombin site (N); made in house; host or cells: Escherichia coli BL21 (DE3)
Procedure: as §1

[4] = tested on: U87MG/EGFRvIII cells; experiment: LDH, protein carbonyl and GSH/GSSG measurements; type: cell-based, human; conditions: dose-dependent, 0-5 μM
Procedure: After collecting the supernatants, the […] were measured using LDH assay kits (Promega Corporation, USA). Protein carbonyl level and GSH/GSSG ratio were measured from cell homogenates using Protein Carbonyl Assay Kit (#ab126287, Abcam, Cambridge MA, USA) and GSH/GSSG-Glo™ (Promega Corporation, USA), respectively.

[5] = biological target: T3, GSTP1 WT (Homo sapiens, UniProt P09211, I105V); experiment: Microscale thermophoresis (MST), GSTP1 wild type; type: binding; conditions: mean ± SEM, three experiments
T3 construct: hexahistidine tag followed by a thrombin site (N); made in house; host or cells: Escherichia coli BL21 (DE3)
Procedure: as §1

[6] = biological target: T4, NQO1 (Homo sapiens, UniProt P15559); experiment: NQO1 activity assay (DCPIP reduction); type: biochemical; conditions: purified recombinant protein, Fig. 3b; read-out: IC50, inhibition of NQO1 activity
T4 construct: hexahistidine tag followed by a thrombin site (N); made in house; host or cells: Escherichia coli BL21 (DE3)
Procedure: NQO1 activity was measured essentially as described previously. Assays were performed in 25 mM Tris–HCl, pH 7.4, 0.7 mg/mL BSA, 250 mM sucrose, 0.2 mM NADPH and 40 μM dichlorophenolindophenol (DCPIP) in the presence of NQO1 protein with 10, 5, 2.5, 1.25, 0.625, 0.3125, 0.15625 and 0 μM of MNPC. It is analyzed for the reduction of DCPIP measured at 600 nm.

[7] = tested on: U87MG/EGFRvIII cells; experiment: Apoptosis: cleaved caspase 3 western blot and TUNEL; type: cell-based, human; conditions: 0-5 μM, 48 h, confirmed by TUNEL
Procedure: After different treatments with the conditions described, the cells were harvested and the total proteins were extracted. Equal amounts of the proteins were loaded on SDS-PAGE and western blot assays were analyzed. Primary antibodies were from CST, USA, and the following targets were used: p-EGFR (#2236); EGFR (#2232); NQO1 (#3187); GSTP1 (#3369); cleaved caspase 3 (#9664); β-actin (#3700).
After different treatments, the cells and the tumor tissues were processed with Apo-Direct TUNEL Assay (Roche Applied Science, Germany) following the manufacture’s instruction. The slides were photographed with a fluorescence microscope (Nikon, Japan).

[8] = biological target: T5, GSTP1 Y108A (Homo sapiens, UniProt P09211, I105V/Y109A); experiment: Microscale thermophoresis (MST), Y108A; conditions: n.b. = no clear binding detected
T5 construct: hexahistidine tag followed by a thrombin site (N); made in house; host or cells: Escherichia coli BL21 (DE3)
Procedure: as §1

[9] = tested on: U87MG/EGFRvIII intracranial tumors; experiment: Intracranial U87MG/EGFRvIII xenograft in nude mice; type: in vivo, mouse
Procedure: Animals were housed, maintained and treated at Emory University in accordance with protocols approved by the Institutional Animal Care and Use Committee (IACUC) at Emory University. For xenograft animal models, U87MG/EGFRvIII cells (2 × 10^6) in 100 μl of PBS were inoculated subcutaneously into 6-week-old nude mice. Tumor growth was assessed every 3 days via size and body weight measurements. The total tumor volume (TV) was calculated according to the following formula: TV (mm^3) = a * b^2/2, where “a” is the […] diameter and “b” denotes the […] diameter. The mice were euthanized after 28 days. For the intracranial model, mice were placed in a stereotaxic instrument, and cells injection (1 × 10^5) in 2 μl was performed stereotaxically at coordinates anteroposterior (AP) -2.0 mm and mediolateral (ML) + 0.7 mm relative to bregma, and dorsoventral (DV) -3.0 mm from the dural surface. The needle remained in place for 5 min before it was removed slowly. The mice were placed on a heating pad until it began to recover from the surgery. After the surgery for 8 days, intraperitoneal (i.p.) injection was used at dose levels of 3 mg/kg, 10 mg/kg or control agent. This treatment was performed every 2 days for a total of 10 times. After the drug treatment, mice were euthanized and the tumor volumes were analyzed by MRI [37].
The tumors and primary organs from the nude mice of the above models were fixed in 10% formalin overnight and were then embedded in paraffin. Sections were prepared, and H&E staining was conducted to detect any histological changes of the tumors and organs. The expression of Ki67 in the tumor tissue slices was assessed using a technique that has been reported previously. Photographs were taken using a fluorescence microscope (Nikon, Japan).

[10] = higher dose (10 mg/kg) i.p. every 2 days, 10 doses

T5 sequence (P09211 whole entry I105V/Y109A): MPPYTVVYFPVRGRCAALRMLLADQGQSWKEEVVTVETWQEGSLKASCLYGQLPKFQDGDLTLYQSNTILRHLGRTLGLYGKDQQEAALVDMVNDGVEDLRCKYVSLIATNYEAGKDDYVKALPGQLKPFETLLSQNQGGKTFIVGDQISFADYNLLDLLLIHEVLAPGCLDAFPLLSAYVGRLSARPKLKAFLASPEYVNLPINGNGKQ
T1 sequence (P09211 whole entry R101A/I105V): as the sequence (P09211 whole entry I105V/Y109A) above, with R101A, A109Y counted along it
T2 sequence (P09211 2-210 I105A): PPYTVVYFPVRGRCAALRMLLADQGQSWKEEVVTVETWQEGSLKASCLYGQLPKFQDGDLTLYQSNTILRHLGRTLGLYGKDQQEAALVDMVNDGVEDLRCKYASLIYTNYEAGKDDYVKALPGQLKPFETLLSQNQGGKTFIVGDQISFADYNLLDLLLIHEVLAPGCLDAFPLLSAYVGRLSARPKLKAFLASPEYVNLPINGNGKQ
T3 sequence (P09211 whole entry I105V): as the sequence (P09211 whole entry I105V/Y109A) above, with A109Y counted along it
T4 sequence (P15559 whole entry): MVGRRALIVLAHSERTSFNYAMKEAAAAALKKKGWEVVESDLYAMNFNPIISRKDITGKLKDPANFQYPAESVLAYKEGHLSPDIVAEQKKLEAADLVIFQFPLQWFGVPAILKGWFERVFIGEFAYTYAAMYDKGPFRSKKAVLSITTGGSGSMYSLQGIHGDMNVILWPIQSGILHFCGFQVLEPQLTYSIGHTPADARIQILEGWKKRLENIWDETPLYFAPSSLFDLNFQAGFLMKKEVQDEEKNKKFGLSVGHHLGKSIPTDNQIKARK

## Cc1onc(-c2ccccc2)c1C(=O)Nc1ncc([N+](=O)[O-])s1 [MNPC, 5-methyl-N-(5-nitro-thiazol-2-yl)-3-phenylisoxazole-4-carboxamide]
[1]
  ROS levels: elevated
[2]
  Kd (μM), R100A: n.b. and no detectable binding
[3]
  Kd: 24.4 ± 1.95 µM
[4]
  Carbonyl expression: induced
  GSH/GSSG ratio: downregulating
  LDH release: induced
[5]
  Kd: 17.6 ± 0.8 µM
[6]
  IC50: 0.926 µM
[7]
  Caspase 3 activation / apoptosis: induced caspase 3 activation
[8]
  Kd (μM), Y108A: n.b. and no detectable binding
[9]; 3 and 10 mg/kg i.p.
  ROS levels, active caspase 3 and apoptosis in tumors: dose-dependently increased
[9]; [10]
  Mouse survival: enhanced mouse survival
  Tumor growth (intracranial tumor volume): reduced tumor growth
